Laboratory results: US20140140946A1, “SKIN PREPARATION COMPOSITION FOR EXTERNAL USE WITH EXCELLENT ANTIBACTERIAL AND ANTIFUNGAL EFFECTS” (priority 2010, published 2014)

Tests used:
Assay type in all cases: cell-based
[1] = system: Pityrosporum ovale (Malassezia furfur); assay: Growth of Pityrosporum ovale in Leeming & Notman medium; conditions: 32° C. for 3 days; FIG. 4; trisodium phosphate at pH 8.0
Protocol: Each of citric acid (pH 4.0), trisodium phosphate (TSP, pH 8.4) and citric acid+trisodium phosphate (pH 5.0) was added to Leeming & Notman medium of 1 L containing glucose 10 g, peptone 10 g, bile salts 8 g, yeast extract 2 g, glycerol monostearate 0.5 g, glycerol 10 ml and Tween 80 (1.5%) 15 ml, and 0.1 ml of Pityrosporum ovale (Malassezia furfur), which is a kind of fungi known for causing atopy, was injected to each group.

[2] = system: Peptostreptococcus asaccharolyticus (KTCC 3321); assay: Growth of Peptostreptococcus asaccharolyticus in Wilkins Chalgren Anaerobe Broth; conditions: citric acid 0.8 g, trisodium phosphate 1.85 g, pH 6.0
Excerpt: (§1) The following control group is a broth not injected with the bacteria.

[3] = system: Streptococcus mitis (KCTC 3556); assay: Growth of Streptococcus mitis in BHI broth; conditions: citric acid 0.4 g, trisodium phosphate 0.64 g, pH 6.0
Excerpt: as §1

[4] = system: Streptococcus mutans (KCTC 3065); assay: Growth of Streptococcus mutans in BHI broth; conditions: citric acid 0.4 g, trisodium phosphate 0.64 g, pH 6.0
Excerpt: as §1

[5] = system: S. salivarius (KCTC 3960); assay: Growth of S. salivarius in BHI broth; conditions: citric acid 0.4 g, trisodium phosphate 0.64 g, pH 6.0
Excerpt: as §1

Streptococcus sanguinis = assay: Growth of Streptococcus sanguinis in BHI broth; conditions: citric acid 0.4 g, trisodium phosphate 0.64 g, pH 6.0
Excerpt: as §1

With `O=P([O-])([O-])[O-].[Na+].[Na+].[Na+]` [trisodium phosphate] the “growth of P. ovale” value [1] was “significantly suppressed”.
For HCl [Broth D], the “Absorbance (OD)” value ([2]; 4 hrs) was 0.005 OD, the “Absorbance (OD)” value ([2]; 8 hrs) was 0.010 OD and the “Absorbance (OD)” value ([2]; 12 hrs) was 0.002 OD. For the same compound, the “Absorbance (OD)” value ([2]; 16 hrs) was 0.008 OD, the “Growth observed (in words)” value ([2]; 20 hrs) was “No change” and the “Growth observed (in words)” value ([2]; 24 hrs) was “No change”. The “Growth observed (in words)” value ([2]; 56 hrs) was “Full growth”, the “Absorbance (OD)” value ([3]; 4 hrs) was 0.054 OD and the “Absorbance (OD)” value ([3]; 6 hrs) was 0.104 OD. For the same compound, the “Absorbance (OD)” value ([3]; 8 hrs) was 0.205 OD, the “Absorbance (OD)” value ([3]; 10 hrs) was 0.244 OD and the “Absorbance (OD)” value ([3]; 12 hrs) was 0.218 OD. For the same compound, the “Absorbance (OD)” value ([3]; 14 hrs) was 0.127 OD, the “Absorbance (OD)” value ([3]; 16 hrs) was 0.089 OD and the “Absorbance (OD)” value ([3]; 18 hrs) was 0.092 OD. For the same compound, the “Absorbance (OD)” value ([4]; 4 hrs) was 0.032 OD, the “Absorbance (OD)” value ([4]; 6 hrs) was 0.092 OD and the “Absorbance (OD)” value ([4]; 8 hrs) was 0.141 OD. For the same compound, the “Absorbance (OD)” value ([4]; 10 hrs) was 0.200 OD, the “Absorbance (OD)” value ([4]; 12 hrs) was 0.244 OD and the “Absorbance (OD)” value ([4]; 14 hrs) was 0.212 OD. The “Absorbance (OD)” value ([4]; 16 hrs) was 0.235 OD, the “Absorbance (OD)” value ([4]; 18 hrs) was 0.210 OD and the “Absorbance (OD)” value ([5]; 4 hrs) was 0.011 OD. The “Absorbance (OD)” value ([5]; 6 hrs) was 0.068 OD, the “Absorbance (OD)” value ([5]; 8 hrs) was 0.167 OD and the “Absorbance (OD)” value ([5]; 10 hrs) was 0.192 OD. The “Absorbance (OD)” value ([5]; 12 hrs) was 0.224 OD, the “Absorbance (OD)” value ([5]; 14 hrs) was 0.234 OD and the “Absorbance (OD)” value ([5]; 16 hrs) was 0.319 OD. For the same compound, the “Absorbance (OD)” value ([5]; 18 hrs) was 0.224 OD, the “Absorbance (OD)” value (Streptococcus sanguinis; 4 hrs) was 0.018 OD and the “Absorbance (OD)” value (Streptococcus sanguinis; 6 hrs) was 0.039 OD. The “Absorbance (OD)” value (Streptococcus sanguinis; 8 hrs) was 0.118 OD, the “Absorbance (OD)” value (Streptococcus sanguinis; 10 hrs) was 0.127 OD and the “Absorbance (OD)” value (Streptococcus sanguinis; 12 hrs) was 0.283 OD. The “Absorbance (OD)” value (Streptococcus sanguinis; 14 hrs) was 0.303 OD, the “Absorbance (OD)” value (Streptococcus sanguinis; 16 hrs) was 0.203 OD and the “Absorbance (OD)” value (Streptococcus sanguinis; 18 hrs) was 0.199 OD.
